Laboratory results as given in publication PMC11274654 (Biomedicines, 2024).

How the values were obtained:
rat BMSCs (rBMSCs) = assay: ALP activity in rat bone marrow stromal cells; type: cell-based; conditions: 1 nM, seven days post-treatment
C3H10T1/2 cells = assay: Nodule mineralization (Alizarin Red S) in C3H10T1/2 cells; type: cell-based, murine; conditions: 21 days, differentiation medium
Experimental: In a different set of experiments, 3 × 10^6 C3H10T1/2 cells were seeded in a 60 mm culture dish. Then, 24 h post-seeding, the vehicle or MTZ treatment was conducted, and the media were changed every alternate day for 21 days using a differentiation medium.
Cells were fixed with 10% formalin for 15 min and stained with Alizarin Red for 1 h after 21 days of culture. Moreover, 10% cetylpyridinium chloride (Sigma #C0732) was used to quantify mineralized nodules at a 595 nm wavelength.

[1] = test system: Runx2 expression in C3H10T1/2 cells; assay: Western blotting of Runx2 in C3H10T1/2 cells; type: cell-based, murine; conditions: 10 nM
Experimental: Western blotting was performed as previously described. Briefly, whole-cell extracts (WCEs) were prepared at indicated time points using RIPA lysis buffer, and aliquots of 30 μg protein per lane were loaded and resolved on SDS-PAGE (10%), followed by blotting onto the PVDF membrane (Millipore Inc., Burlington, MA, USA). The membrane was blocked in 1% BSA, followed by immunoblotting with primary antibodies: Runx2 (ab 76956) (1:1000), pGSK (9323S) (1:1000), and GSK (9315S) (1:1000) at 4 °C overnight. Anti-rabbit HRP secondary antibody (Sigma, catalog number A0545) (1:3000) was used for Runx2, pGSK3β, and GSK3β. Bands were detected by incubating the membranes with ECL substrate (Thermo Fisher Scientific, Waltham, MA, USA) and developed on ChemiDoc (Image Quant LAS 4000, GE Healthcare, Hatfield, UK). Blots were re-probed after washing with mild stripping buffer (1.5% Glycine, 0.1% SDS, and 1% Tween 20).

[2] = test system: bone regeneration at the femur osteotomy site; assay: Femur osteotomy model, oral MTZ; type: in vivo, Sprague Dawley rats; conditions: 117 mg/kg and 235 mg/kg oral daily, 12 days
Experimental: (§1) Femur osteotomy was carried out in adult female Sprague Dawley (SD) rats (200 ± 20 g, 3 months old) and 3-month post-ovariectomized osteopenic SD rats (280 ± 20 g, 6 months old) by inserting a drill bit with a diameter of 0.8 mm from the anterior to the posterior mid-diaphysis of the right femur.
(§2) The human equivalent dose for rats is 235 mg/kg; half of this amount, 117 mg/kg, was used for the study. Doses of MTZ (117 mg/kg and 235 mg/kg) were administered daily by the oral route for 12 days. For the formulation study, MTZ@In situ gel and unformulated MTZ were administered every 3 days (total of 4 injections) for a period of 12 days via the subcutaneous route in the osteotomy animal. Each rat received 20 mg/kg, s.c. of bone-seeking fluorochrome calcein 24 h before sacrifice in order to evaluate the new bone formation at the fractured callus.
(§3) A SkyScan 1076 μCT scanner (SkyScan, Ltd., Kartuizersweg, Kontich, Belgium) was used to perform a high-resolution μCT for the two-dimensional and three-dimensional assessment of excised bones. The rat bone scanning process used an isotropic voxel pixel size of 18 μm and an X-ray source of 70 kV and […]. Utilizing the SkyScan Nrecon software (Version: 1.7.0.4), cross-sectional reconstruction was performed. […] The Batman software (Version: 1.16.8.0+), with trabecular (3D) bone analysis programs was used for quantification.

[3] = test system: bone regeneration at the callus site in OVX rats; assay: Femur osteotomy model in osteopenic OVX rats, oral MTZ; type: in vivo, ovariectomized osteopenic SD rats; conditions: 235 mg/kg oral, 12 days
Experimental: as §1, §2, §3

[4] = test system: bone formation in femur metaphysis of OVX rats; assay: OVX osteopenia model, dynamic bone histomorphometry (double calcein labeling); type: in vivo, SD rats; conditions: 235 mg/kg oral, 3 months
Experimental: The 10-month-old (265 ± 20 g) SD rats were ovariectomized (OVX) bilaterally and left for 3 months to develop osteopenia. Ovary-intact sham-operated animals were used as a control. A live animal micro-CT was performed to confirm osteopenia, followed by dividing the animals into 3 groups: Sham + vehicle (water, oral), OVX + vehicle (water, oral), and OVX + MTZ (235 mg/kg, oral). Each group had 9 rats, and treatment were administered for 3 months. Calcein (20 mg/kg, s.c.) was injected twice before sacrificing at 10-day intervals.
Two calcein injections were spaced ten days apart for double calcein labeling to perform dynamic histomorphometric assessments. A previously published protocol was used to calculate the bone formation rate/total bone surface (BFR/BS), mineralizing surface/bone surface (MS/BS), and mineral apposition rate (MAR).

[5] = In vitro MTZ release in PBS and release kinetics models; type: physicochemical; design: Hixson–Crowell kHC / Zero-order K0 / First-order K1 / Higuchi kH: unit not given here; conditions: in PBS
Experimental: To evaluate the release kinetics profile of MTZ, a formulation containing 10 mg equivalent of MTZ was injected into 200 mL of the PBS medium (37 ± 0.5 °C) using a 20-gauge needle. The formulation immediately turned into a gel upon contact with the dissolution medium. The dissolution vials were placed on a reciprocating bath-shaker and left for continuous shaking throughout the dissolution study. A total of 2 mL of aliquots were withdrawn and replaced with an equal volume of fresh PBS to maintain the sink condition. The dissolution study was conducted for a duration of 24 h. The samples were filtered through a syringe filter (0.22 μm). The MTZ concentrations were analyzed spectrophotometrically (294 nm) after appropriate dilution, with PBS as a blank for background correction. The measured concentrations were presented as the mean ± standard deviation (SD).
To understand the drug release kinetics, data obtained from the release study were fitted into various kinetics models: zero-order, first-order, Higuchi, Korsmeyer–Peppas, and Hixson–Crowell. The DD solver Excel add-in program was utilized to compare and identify the mechanism of drug release.

First-order K1 [5]: 0.08 ± 0.00
First-order R^2 [5]: 0.84 ± 0.00
Higuchi R^2 [5]: 0.71 ± 0.00
Higuchi kH [5]: 16.34 ± 0.12
Hixson–Crowell R^2 [5]: 0.86 ± 0.01
Hixson–Crowell kHC [5]: 0.02 ± 0.00
Korsmeyer–Peppas R^2 [5]: 0.81 ± 0.01
Korsmeyer–Peppas kKP [5]: 8.64 ± 0.11
Korsmeyer–Peppas n (release exponent) [5]: 0.78 ± 0.01
Zero-order K0 [5]: 4.77 ± 0.05
Zero-order R^2 [5]: 0.76 ± 0.01
Compound: Cc1ncc([N+](=O)[O-])n1CCO [Metronidazole]
ALP activity compared to the vehicle group (rat BMSCs (rBMSCs)): increased
Mineralization (C3H10T1/2 cells): promoted mineralization
Runx2 expression [1]: increased
Bone volume at the osteotomy site [2]: increased
Calcein intensity at the osteotomy site [2]: increased
Bone volume at the callus site compared to the control group [3]: increased
Calcein intensity at the callus site compared to the control group [3]: increased
BFR [4]: reversed all parameters to sham levels
MAR [4]: reversed all parameters to sham levels
MS/BS [4]: reversed all parameters to sham levels
